Drawing on PubChem BioAssay AID179 (DTP/NCI, 2004), this text covers EC50, IC50 and outcome for 71 compounds.

A word on the EC50: it is the concentration at which the effect is half-maximal. The term IC50 denotes the concentration that gives 50% inhibition.

Active and inactive are the calls of the source.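 How the source made its calls: active means compounds giving half or more protection of infected cells from virus-caused growth loss, again on retest; inactive means the rest.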 Where a SMILES comes first, the peptide text is derived from it. The star is where a group is joined. Boc = CC(C)(C)OC(=O)*

The subject of the test is CEM cells HIV-1 protection, formazan growth assay. Nature of the test: NCI AIDS Antiviral Assay. To be noted: for IC50: measured here: growth of uninfected CEM cells. A digest of the protocol: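 Screen of anti-HIV-1 activity in human CEM cells using a formazan-based growth measurement at five drug concentrations. Hits with 50% or greater protection were repeated, and confirmation required reproducible complete protection.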

As to `COc1ccc(-c2c3c(n(C4OC(COC(C)=O)C(OC(C)=O)C(OC(C)=O)C4OC(C)=O)c(=S)c2C#N)CCC3)cc1` (stereo not given), the EC50 was above 200 µM and the IC50 is 112 µM.

Consider `NC(=Nc1ccc(S(=O)(=O)Nc2cnc3ccccc3n2)cc1)/N=C(/N)Nc1ccc(Br)cc1`, for which the EC50 is above 87.1 µM and the IC50 was above 87.1 µM.

For the compound `Cc1cc(O)c2c(c1)C([C@]13Cc4cc(O)c5c(c4[C@H]1C=C[C@@H](O)C3O)C(=O)c1c(O)ccc(O)c1C5=O)OC2=O` (stereo not given in full), the EC50 was above 6.61 µM and the IC50 was above 6.61 µM.

For the compound `NC(=O)NNC(O)(C(F)(F)F)C(F)(F)F`, the EC50 was above 200 µM and the IC50 was above 200 µM.

Regarding `O=C1c2cccc3cccc(c23)C(=O)N1C(Cc1ccccc1)c1ccccc1` (stereo not given), the EC50 is above 200 µM and the IC50 was above 200 µM.

For `COc1oc(C(=O)NC2CCCCC2)c(-c2ccc(Cl)cc2)c1S(=O)(=O)c1ccccc1`, the EC50 is above 200 µM and the IC50 turned out to be 9.77 µM.

As to `Brc1ccc(-c2nc3sc(-c4ccc5c(c4)OCO5)nn3c2Br)cc1`, the EC50 was above 200 µM and the IC50 was above 200 µM.

As for `NS(=O)(=O)c1ccc2c(c1)OCCOCCOCCOCCO2`, the EC50 is above 200 µM and the IC50 is above 200 µM.

Regarding `CCC(=O)c1c(O)c2ccccc2oc1=O`, the EC50 is above 200 µM and the IC50 was above 100 µM.

Regarding `COc1ccc2c(n1)Sc1c(Cl)nc(N)nc1N2`, the EC50 is above 158 µM and the IC50 is above 158 µM.

Regarding `CC1c2c(cc(=O)n(Cc3ccccc3)c2O)C(=O)N1C` (stereo not given), the EC50 is above 126 µM and the IC50 came to 112 µM.

In the case of `C1OC1CN1CCN(CC2CO2)CC1` (stereo not given), the result was inactive.

Regarding `Cc1c(C(N)=C(C#N)C#N)c(=N)oc2ccccc12`, the EC50 was above 200 µM and the IC50 turned out to be 36.3 µM.

Regarding `c1ccc([P+](CCSCCSCC[P+](c2ccccc2)(c2ccccc2)c2ccccc2)(c2ccccc2)c2ccccc2)cc1`, the EC50 is above 339 µM and the IC50 came to 61.7 µM.

Regarding `CC(NC(=O)OCc1ccccc1)C(=O)NC(C(=O)O)C(C)C` (stereo not given), the EC50 was above 776 µM and the IC50 is above 776 µM.

Consider `COc1c(O)c2c3c(cc(C)cc3c1C(C)C)OC2`, for which the EC50 was above 28.2 µM and the IC50 was above 28.2 µM.

Regarding `CC(C)C(NC(=O)OC(C)(C)C)C(=O)N1CCCC1C(=O)O` (stereo not drawn) (Boc-Val-Pro-OH; configuration not given here), the EC50 is above 200 µM and the IC50 is above 200 µM.

Turning to `Cc1c2c(cc3c1C(=O)C(=O)C([C@@H](C)CO)=C3O)C(C)(C)CCC2`, the EC50 was above 200 µM and the IC50 came out at 15.1 µM.

Take `CCCC(=O)C(C)=C(OC)OC`: the outcome was inactive.

On to `O=C1CS(=O)(=O)C(c2ccccc2)N1N1C(=O)CS(=O)(=O)C1c1ccccc1` (stereo not given), for which the EC50 was above 200 µM and the half-inhibitory concentration (IC50) was above 200 µM.

With `N#Cc1ccccc1NC(=O)C(O)C(O)C(O)C(O)C=O` (stereo not given), the EC50 was above 200 µM and the IC50 was above 200 µM.

For the compound `S=C(N/N=C(\c1ccccc1)c1ccccn1)NC1CCCCC1`, the EC50 is above 200 µM and the IC50 was found to be 2.4 µM.

Regarding `COc1cc(C2C(Cl)C(=O)N2NC(=O)c2ccccc2O)cc(OC)c1OC` (stereo not given), the EC50 is above 45.7 µM and the IC50 was 3.98 µM.

For the compound `O=c1[nH]c2nc3ccccc3c(=O)n2nc1Cc1ccccc1`, the EC50 is above 44.7 µM and the IC50 is above 44.7 µM.

As to `O=C1NC(N2CCCCC2)=N/C1=C\c1ccc(Cl)cc1`, the EC50 was above 200 µM and the IC50 turned out to be 97.7 µM.

On to `CC(C)(C)OC(=O)N1CCC(C(=O)O)CC1`, for which the EC50 is above 200 µM and the IC50 is above 200 µM.

With `Cc1c(C#N)c2nnn(-c3ccccc3)c(=O)n2c1-c1ccccc1`, the EC50 was above 200 µM and the 50% inhibitory concentration (IC50) was 1.02 µM.

In the case of `C(=C/c1ccc2nc(-c3ccc(/C=C/C=N/NC4=NCCCN4)cc3)cn2c1)/C=N/NC1=NCCCN1`, the EC50 was above 100 µM and the IC50 was determined as 16.6 µM.

With `CC(NC(=O)c1ccccc1SC(=O)CCC[n+]1ccccc1)C(N)=O` (stereo not given), the EC50 was 2.24 µM and the IC50 amounted to 19.1 µM.

As to `CNC(=O)N(CCCC(NC(C)=O)C(=O)NCc1ccccc1)Cc1ccccc1` (stereo not given), the EC50 is above 603 µM and the IC50 was above 603 µM.

As for `O=C1Cc2c([nH]c3ccc(Cl)cc23)-c2ccccc2N1`, the EC50 is above 200 µM and the half-maximal inhibitory concentration (IC50) was found to be 17.4 µM.

Take `Nc1ncnc2c1ncn2C1OC2(CCSC2)C(O)C1O` (stereo not given): the EC50 was above 200 µM and the IC50 was determined as 155 µM.

As to `O=C1C(Br)=CC2(C=C1Br)CCNc1c(O)c3c4c(c12)=NCCC=4C=N3`, the EC50 was above 2 µM and the IC50 was determined as 0.0891 µM.

Turning to `Cc1ccc(Cl)cc1N=NC(=O)NNc1cc(Cl)ccc1C`, the EC50 is above 200 µM and the IC50 came out at 25.1 µM.

Regarding `COc1ccccc1N1CCN(CCCNC(=O)c2cc(Cl)c(N)c(Cl)c2)CC1`, the EC50 was above 200 µM and the IC50 turned out to be 89.1 µM.

Take `COC1[C@@H](OC(C)=O)[C@@H](NC(=O)C(Cl)(Cl)Cl)C(I)[C@@H](N2C(=O)c3ccccc3C2=O)[C@H]1OC` (stereo not given in full): the EC50 was above 200 µM.

As for `Cc1cccc(C2=NC(c3ccccc3)C(c3ccccc3)N=C2c2cccc(C)n2)n1` (stereo not given), the EC50 is above 16.2 µM and the IC50 was above 16.2 µM.

For `Cn1cc(NC(=O)Nc2cc(C(=O)Nc3cc(C(=O)Nc4cc(C(=O)Nc5ccc(S(=O)(=O)O)c6cc(S(=O)(=O)O)ccc56)n(C)c4)n(C)c3)n(C)c2)cc1C(=O)Nc1cc(C(=O)Nc2cc(C(=O)Nc3ccc(S(=O)(=O)O)c4cc(S(=O)(=O)O)ccc34)n(C)c2)n(C)c1`, the EC50 is 0.178 µM and the IC50 worked out at 75.9 µM.

Turning to `CC(CN1CCCCC1)SSC(C)CN1CCCCC1` (stereo not given), the EC50 is above 200 µM and the IC50 was found to be 24 µM.

As to `Nc1nc(Cl)c(N)c(NCC2(CO)CCCC2)n1`, the EC50 was above 200 µM and the half-maximal inhibitory concentration (IC50) stood at 102 µM.

`CN1C(=O)N(C)C2(O)c3ccccc3C(=O)C12O` (stereo not given): the EC50 is above 1000 µM and the IC50 was above 1000 µM.

In the case of `COC(=O)/C(C#N)=C(\Nc1ccccc1)N1CCCCC1`, the EC50 is above 200 µM and the IC50 was found to be 97.7 µM.

On to `COc1c(Cl)cc(C(=CCCCCN[C@H]2CC[C@@]3(C)[C@@H](CC[C@@H]4[C@@H]3CC[C@]3(C)[C@@H](C(C)CCCC(C)C)CC[C@@H]43)C2)c2cc(Cl)c(OC)c(C(=O)O)c2)cc1C(=O)O` (stereo not given in full), for which the EC50 was above 200 µM and the IC50 is above 200 µM.

As for `Cc1cc(C)c(C#N)c(SC(=S)NC(=O)c2ccccc2)n1`, the EC50 was 158 µM and the IC50 is above 200 µM.

For `CC1(C)N=C(C(N)=O)c2ncn(Cc3ccccc3)c2N1`, the EC50 is above 200 µM and the IC50 was above 200 µM.

Consider `O=S(=O)(c1ccccc1)C1(CCC2OCCO2)C=CC2(CC1)OCCO2` (stereo not given), for which the EC50 was above 200 µM and the IC50 was above 200 µM.

Consider `Nc1cccc2c1C1=NNC(=O)CC1C2` (stereo not given), for which the result was inactive.

On to `O=C1N(CCO)C2=CCCCC23c2[nH]c4ccccc4c2CCN13` (stereo not given), for which the EC50 was above 200 µM and the IC50 is above 100 µM.

Regarding `CNNCc1ccc(C(=O)NC(C)C)cc1`, the EC50 is above 977 µM and the IC50 was 229 µM.

`Cc1ccc(Cc2nc(=S)[nH][nH]2)cc1`: the EC50 was above 200 µM and the IC50 came to 120 µM.

For `O=C1CCC2CCc3cccc4oc1c2c34` (stereo not given), the outcome was inactive.

As for `COc1c2c(c(N)c3ccc(=O)oc13)CCO2`, the EC50 is above 126 µM and the IC50 was above 126 µM.

On to `CCOC(=O)c1c(-c2ccccc2)c(OC)cn1C`, for which the EC50 was above 200 µM and the IC50 was above 200 µM.

`CC(=C\c1ccccc1)/C=C1\C(=O)NC(=S)N1C=C1C(=O)NC(=O)NC1=O`: the EC50 is above 200 µM and the IC50 is above 200 µM.

For the compound `Nc1ccc2cc(S(=O)(=O)O)cc(O)c2c1N=Nc1ccc(NC(=O)c2ccc(C(=O)Nc3ccc(N=Nc4c(N)ccc5cc(S(=O)(=O)O)cc(O)c45)c(S(=O)(=O)O)c3)cc2)cc1S(=O)(=O)O`, the result was active.

For the compound `COc1ccc(-c2cc(=O)c3c(OC)c(OC)c(OC)c(OC)c3o2)cc1`, the EC50 was above 120 µM and the IC50 is 110 µM.

For `CSc1nnc(CCC(=O)Nc2c(C)cccc2C)o1`, the EC50 is above 309 µM and the IC50 was above 309 µM.

Take `COC(=O)c1c(C)cccc1C1CN=NC12Cc1cc(C)cc(C)c1C2=O` (stereo not given): the EC50 is above 200 µM and the IC50 turned out to be 33.1 µM.

Consider `Cc1cc(NC2=NCCO2)c2c(c1C)CCCC2`, for which the EC50 was above 200 µM and the IC50 is 29.5 µM.

For `CS(=O)(=O)OCC1CCCCCCCCCCC12SCCCS2` (stereo not given), the EC50 is above 200 µM and the IC50 is above 200 µM.

Turning to `c1ccc(N=C(N2CCCCC2)N(CCN2CCCCC2)c2ccccc2)cc1`, the EC50 is above 200 µM and the 50% inhibitory concentration (IC50) was 1.82 µM.

On to `O=C(Nc1ccc(Cl)cc1)c1cc2cc(N=Nc3ccc(Br)cc3)ccc2oc1=O`, for which the outcome was inactive.

Turning to `CN(C)c1c(-c2ccccc2)cc(-c2ccccc2)[nH]c1=O`, the EC50 was above 64.6 µM and the IC50 was above 64.6 µM.

For the compound `CC1(C)C2CC(=O)C1(C)C(OCc1ccccc1)C2Br` (stereo not given), the EC50 is above 200 µM and the IC50 was above 100 µM.

Consider `Cc1cccc(Nc2cn(CCOc3ccccc3)c(=O)n(CCOc3ccccc3)c2=O)c1`, for which the EC50 is above 200 µM and the IC50 is above 200 µM.

Turning to `NC(=O)NC(=O)c1ccco1`, the EC50 is above 200 µM and the IC50 was above 200 µM.

For `CN=C1CN=C(OP(=O)(N2CCOCC2)N2CCOCC2)c2cc(Cl)ccc2N1`, the EC50 is above 6.17 µM and the IC50 is above 6.17 µM.

Take `Cn1c2c(c3ccccc31)CCN(CCCN1CCN(c3ccccc3)CC1)C2=O`: the EC50 is above 55 µM and the IC50 came out at 44.7 µM.

As to `C[C@H]1C2=CC(=O)CC[C@@](C)(O2)[C@H]2CC[C@]3(C)C(=O)CC[C@H]3[C@H]12`, the EC50 was above 832 µM and the IC50 was found to be 417 µM.

As for `OCC1CC(F)C(n2cnc3c(NC4CC4)ncnc32)O1` (stereo not given), the EC50 is above 200 µM and the IC50 is above 200 µM.

Take `Nc1nnn(N)n1`: the EC50 was above 200 µM and the IC50 was above 200 µM.
